Patent US11400058B2, “Intravenous formulations of coenzyme Q10 (CoQ10) and methods of use thereof” (Berg LLC, priority 2010, dated 2022)

Columns and labels:
[1] = Non-GLP four-week toxicity/toxicokinetic study in macaques (Mannheimer Foundation Study 2010-01); type: in vivo, sub-adult male macaques; settings: for Tmax: male, macaque, plasma, macaques
Text: Plasma samples for toxicokinetic analysis were collected pre-dose, and at 0.25, 1, 6, 24, and 48 hr postdose on the first day of dosing. Pre-dose, but no post-dose samples were collected on Days 7, 14, 21 and 29. […] The increases for Cmax were slightly greater than directly dose-proportional. The increases for AUC0-t were apparently substantially greater than directly dose-proportional, but the nonlinearity may be in part a reflection of the sampling schedule.

MCF-7 = assay: Effect on Bcl-2 family, p53 and caspases in breast cancer cells; type: cell-based; settings: MCF-7, 50 and 100 μM
Procedure: (§1) Effect of CoQ10 on Breast Cancer: In another in vitro study, the effect of CoQ10 (50 and 100 μM) on various members of the Bcl-2 family (bcl-2, bcl-xl, bid, bad, bak, mcl-1, bim, and bax), p53, and caspases 4, 8, 12 in two breast cancer cell lines, MCF-7 and Sk-BR3, was evaluated. The Bcl-2 protein family has been implicated as the major contributing factor to conferral of resistance to cancer therapy.

Sk-BR3 = assay: as above; type: cell-based; settings: Sk-BR3, 50 and 100 μM
Procedure: as §1

In the case of `COC1=C(OC)C(=O)C(C/C=C(\C)CC/C=C(\C)CC/C=C(\C)CC/C=C(\C)CC/C=C(\C)CC/C=C(\C)CC/C=C(\C)CC/C=C(\C)CC/C=C(\C)CCC=C(C)C)=C(C)C1=O` [CoQ10, Coenzyme Q10], the “Cmax and AUC0-t versus dose” value ([1]; macaques, 31.25, 62.5, 125 mg/kg IV, preliminary results) is reported as “increased with increasing dose”, the Tmax ([1]; intravenous, one animal) is reported as 60 min and the Tmax ([1]; 31.25-125 mg/kg IV, first day of dosing) is reported as 15 min. The “apoptosis (activation of caspase 3, 6 and 9)” value (MCF-7) was “increased apoptosis”, the “levels of the anti-apoptotic members (bcl-xl, mcl-1, bcl-2)” value (MCF-7) was “significantly decreased” and the “protein expression of pro-apoptotic members and BH3 subfamily members (bid, bad, bax, bim, bak)” value (MCF-7) was “upregulated”. For the same compound, the “apoptosis (activation of caspase 3, 6 and 9)” value (Sk-BR3) was “increased apoptosis”, the “levels of the anti-apoptotic members (bcl-xl, mcl-1, bcl-2)” value (Sk-BR3) was “significantly decreased” and the “protein expression of pro-apoptotic members and BH3 subfamily members (bid, bad, bax, bim, bak)” value (Sk-BR3) was “upregulated”.
